According to patent US7259167B2, “Antimalarial and antiproliferative pharmacophore models, novel tryptanthrin compounds having increased solubility, and methods of making and using thereof” (United States of America as Represented by the Secretary of …, priority 2002, dated 2007):
≈ marks a conversion by molar mass, not a printed value.

Experiments:
[1] = Hemin binding activity assay by 1H NMR (pseudocontact shifts); settings: for Maximum induced Δδ: hemin induced pseudocontact chemical shift; for Maximum induced Δδ / Concentration dependence Δδ: DMSO-d6; for Concentration dependence Δδ: slope of Δδ v. hemin concentration
Method: (§1) As provided in Example 5, the hemin binding affinity for a series of tryptanthrin compounds with functional groups at the 8-position with different electron donating/withdrawing characteristics corresponding with the pharmacophore model of the present invention was determined by ^1H NMR. The binding interaction was measured as a function of the induced up-field shift in the chemical shift as a function of increasing hemin concentration. ^1H spectra of selected compounds each analog with an increasing concentration of hemin were collected and analyzed for the effect of the pseudocontact shifts.
It is well known that bio-molecules containing the paramagnetic species Fe^+3 induce via pseudocontact effect (a thru-space paramagnetic interaction, similar to the thru-space diopolar interaction or NOE) up-field chemical shifts of the ^1H, ^13C, ^15N atoms of bound ligands. See Serge Moreau et al. (1985) Biochemica et. Biophysica Acta 107-116; Alam, S. L., et al. (1998) J. Biomol. NMR 11:119-133; and Kalodimos, C. G., et al. (2000) J. Inorg. Biochem. 79:371-380, which are herein incorporated by reference. […] See Crowley, P. B., et al. (2001) J. Am. Chem. Soc. 123:10444-10453, which is herein incorporated by reference. Consequently, the closer a particular proton on the ligand is to the Fe^+3 atom, the greater the induced Δδ.
as §1, with “The” for “As provided in Example 5, the”, “using” for “by”, “of” for “of selected compounds”
To each sample, a 100 or 200 μl aliquot of a known concentration of hemin dissolved in 1.0 ml of DMSO-d6 was added. The concentrations of the tryptanthrin compounds compounds ranged from 3.0 to 8.0 mg per 500 μl of DMSO. A corresponding solution of hemin in DMSO was prepared to maintain a molar ratio of tryptanthrin compounds to hemin in the range of 1:1.0 to 1:1.5.
All ^1H NMR data was collected using a Bruker Avance-600 spectrometer using methods known in the art. See e.g. Wang, J., et al. (2001) J. Am. Chem. Soc. 123:8080-8088, which is herein incorporated by reference. The proton spectra were collected at 300 K, using a spectral width of 9090.9 Hz. All spectra were acquired with 64k data points in F2. All chemical shifts were referenced internally to TMS (0.00 ppm). The spectra were processed using XWINNMR (Bruker BioSpin Corporation, Billerica, Mass.) on a Silicon Graphics O2 workstation (Silicon Graphics, Mountain View, Calif.). Each data set was multiplied by a Gaussain window function with 0.3 Hz line broadening in each dimension before transformation.

[2] = test system: P. falciparum D6 (Sierra Leone) clone; test: Antimalarial activity assay in vitro ([3H]hypoxanthine incorporation), D6 clone; format: cell-based; settings: Plasmodium falciparum, Table 7, read-out: D-6
Method: (§2) The tryptanthrin compounds were examined for IC50 values against either the P. falciparum W2 (Indochina) or D6 (Sierra Leone) clones in vitro. See U.S. Pat. No. 6,284,772, which is herein incorporated by reference. The in vitro assays were conducted by using the semiautomated microdilution technique of Desjardins, et al. (1979) Antimicrob. Agents Chemther. 16:710-718 and the [^3H]hypoxanthine incorporation techniques of Chulay et al. (1983) Exp. Parasitol. 55:138-146, both of which are herein incorporated by reference. […] The clones were derived by direct visualization and micromanipulation from the patient isolates.
(§3) Test tryptanthrin compounds were initially dissolved in DMSO and diluted 400-fold in RPMI 1640 culture medium supplemented with 25 mM Hepes, 32 mM NaHCO3 and 10% Albumax I (GIBCO BRL, Grand Island, N.Y.). These solutions were subsequently serially diluted 2-fold with a Biomek 1000 (Beckman, Fullerton, Calif.) over 11 different concentrations. The parasites were exposed to serial dilutions of each compound for 48 hours and incubated at 37° C. with 5% O2, 5% CO2, and 90% N2 prior to the addition of [^3H]hypoxanthine. After a further incubation of 18 hours, parasite DNA was harvested from each microtiter well using a Packard Filtermate 196 Harvester (Meriden, Conn.) onto glass filters. Uptake of [^3H]hypoxanthine was measured with a Packard topcount scintillation counter.

[3] = test system: P. falciparum W2 (Indochina) clone; test: Antimalarial activity assay in vitro ([3H]hypoxanthine incorporation), W2 clone; format: cell-based; settings: Plasmodium falciparum, Table 7, read-out: W-2
Description: Although two P. falciparum malaria parasite clones, designated as Sierra Leone (D6) and Indochina (W2) were used in the susceptibility testing as disclosed in Example 1, the IC50 values obtained from the W2 clones were used as the activity parameter to develop the pharmacophore model as the D6 clone results closely paralleled the W2 clones. See U.S. Pat. No. 6,284,772, which is herein incorporated by reference.
as §2, §3

[4] = Cyclic voltammetry, redox potentials; format: physicochemical; set-up: unit not given here; settings: 1 mM in acetonitrile, 0.1 M tetrabutylammonium hexafluorophosphate, Ag-AgCl reference
Method: The redox potentials associated with electron transfer to the oxygen atoms in compounds was measured. Experiments were performed on a CV-50W Voltammetric analyzer with a C2 cell stand (Bioanalytical systems, West Lafayette Ind.).
Cyclic voltammetry experiments were performed on a CV-50W Voltammetric analyzer with a C2 cell stand (Bioanalytical systems, West Lafayette Ind.). A glassy carbon working, an Ag—AgCl reference electrode and a Pt auxiliary electrode were used in a 5 ml glass cell. All samples were dissolved in dry acetonitrile (Aldrich, St. Louis, Mo.) with 0.1 M tetrabutylammonium hexafluorophosphate (Aldrich, St. Louis, Mo.) as the supporting electrolyte. Each analog was prepared at a concentration of 1 mM and was degassed with nitrogen for 5 minutes prior to analysis. Samples were run at several scan rates ranging from 20 to 1000 mV/s. See Smyth, M. R., and Vos, J. G. Analytical Voltammetry; Elsevier: New York, 1992; Chapter 1, which is herein incorporated by reference.

[5] = test system: malaria parasites; test: In vivo testing (modified Thompson test), mouse malaria; set-up: species or system mice
Description: The in vivo efficacy of the compounds of the present invention alone or in combination with an adjuvant can be determined in a modified Thompson test. This test measures the survivability of mice and parasitemia clearance following administration of the compound or composition of the invention on days 3-5 post infection. In brief, 5×10^5 malaria parasites of one or more of the four described strains are inoculated intraperitoneally to female mice that weight approximately 24-30 g. Each compound was dissolved in 5% sodium bicarbonate, and was administered p.o. twice daily from day 3 to day 5 postinfection. Total dosage of the compounds of the invention is 0.001 to 1000 mg/kg. The percent suppression of parasitemia in the treated mice compared to untreated controls is determined for each test compound. Survival of mice to day 60 post infection is considered a cure. Compounds are considered active when the survival time of the treated mice is greater than twice the control mice.
The test of the six compounds identified above were conducted by subcutaneous dosing in peanut oil. Formulated in peanut oil and injected s.c. (N=8) at various doses up to 190 mg/kg. […] Although parasites were not cleared, the survival of infected mice doubled that of the control. Life expectancy was 12-14 days compared to 6-7 days in the control (parasitized, untreated).

Row | Structure (SMILES) | Maximum induced Δδ [1] [ppm] | Concentration dependence Δδ [1] [ppm/mole %] | IC50 [2] [ng/mL] | IC50 [3] [ng/mL] | Redox1 [4] | Redox 2 [4] | also measured
1 | O=C1c2cc([N+](=O)[O-])ccc2-n2c1nc1ncccc1c2=O [DN40] | 1.538 | 0.4159 | – | – | – | – | maximum pseudocontact shift relative to DN48 ([1]; compared with DN48): approximately 3 times
2 | O=C1c2cc(F)ccc2-n2c1nc1ccccc1c2=O [WR^282611] | – | – | – | – | – | – | survival of infected mice relative to control ([5]; 190 mg/kg s.c. in peanut oil): doubled; Life expectancy ([5]; 190 mg/kg s.c. in peanut oil, control 6-7 days): 12 to 14 days; activity ([5]; max. dosage 190 mg/kg s.c. in peanut oil): exhibited activity
3 | COc1ccc2c(c1)C(=O)c1nc3ncccc3c(=O)n1-2 [DN23] | 0.208 | 0.119 | – | – | – | – | –
4 | O=C1c2ccc(Cl)cc2-n2c1nc1ncccc1c2=O [DN48] | 0.389 | 0.119 | – | – | – | – | –
5 | O=C1c2cc(OC(F)(F)F)ccc2-n2c1nc1ncccc1c2=O [DN9] | 0.462 | 0.08951 | – | – | – | – | –
6 | O=C1c2cc(F)ccc2-n2c1nc1ncccc1c2=O [DN63] | 0.360 | 0.1366 | – | – | – | – | –

Second part, led by results:

Row | Maximum induced Δδ [1] [ppm] | Concentration dependence Δδ [1] [ppm/mole %] | IC50 [2] [ng/mL] | IC50 [3] [ng/mL] | Redox1 [4] | Redox 2 [4] | Structure (SMILES) | also measured
7 | – | – | 97.1 (≈ 0.265 µM) | 58.1 (≈ 0.159 µM) | −696 | −1348 | O=C1c2cc(Cl)ccc2-n2c1nc1cc(N3CCCCC3)ccc1c2=O [WR281647] | –
8 | – | – | 6.77 (≈ 0.0225 µM) | 4.74 (≈ 0.0158 µM) | −586 | −1242 | O=C1c2cc(Cl)ccc2-n2c1nc1cc(F)ccc1c2=O [WR281583] | –
9 | – | – | 2.57 (≈ 0.00904 µM) | 1.58 (≈ 0.00557 µM) | −593 | −1219 | O=C1c2cc(F)ccc2-n2c1nc1c(F)cccc1c2=O [WR281631] | –
10 | – | – | 95.3 (≈ 0.236 µM) | 35.6 (≈ 0.0882 µM) | −640 | −1230 | COc1cccc2c(=O)n3c(nc12)C(=O)c1cc(I)ccc1-3 [WR281635] | –
11 | – | – | 70.1 (≈ 0.146 µM) | 36.8 (≈ 0.0764 µM) | −709 | −1375 | CCCCCCCC(=O)OCCN(C)c1ccc2c(=O)n3c(nc2c1)C(=O)c1cc(Cl)ccc1-3 [WR281591] | –
12 | – | – | 2.31 (≈ 0.00566 µM) | 1.25 (≈ 0.00307 µM) | −600 | −1252 | O=C1c2cc(OC(F)(F)F)ccc2-n2c1nc1cc(SCCO)ccc1c2=O [WR281525] | –
13 | – | – | 4.12 (≈ 0.0121 µM) | 2.46 (≈ 0.00723 µM) | −630 | −1281 | CN(CCO)c1ccc2c(=O)n3c(nc2c1)C(=O)c1cc(F)ccc1-3 [WR281523] | –
14 | – | – | 10.5 (≈ 0.0275 µM) | 4.27 (≈ 0.0112 µM) | −692 | −1324 | CN1CCN(c2ccc3c(=O)n4c(nc3c2)C(=O)c2cc(Cl)ccc2-4)CC1 [WR281588] | –
